Tests used:
[1] = test system: formation of a wheal (Rat Passive Cutaneous Anaphylaxis); assay: Rat Passive Cutaneous Anaphylaxis (PCA) Screen, inhibition of wheal formation; assay type: in vivo; settings: for ED50: oral (p.o.), rat PCA, read-out: ED50 (dose required to give 50% reduction in wheal size)
From the text: The compounds of this invention have potent activity in inhibiting the formation of a wheal when screened according to the Rat Passive Cutaneous Anaphylaxis Screen as is described by I. Mota, Life Sciences, 7, 465 (1963) and Z. Ovary, et al., Proceedings of Society of Experimental Biology and Medicine, 81, 584 (1952).
The activities are given as ED50 values, which are the doses required to give 50% reductions in wheal size.

[2] = oral anti-allergy activity in standard tests; assay type: in vivo; settings: standard tests for anti-allergy activity

| Compound | ED50 [1] | inhibition of wheal size ([1]; tested at 25 mg/kg, p.o.) | anti-allergy activity (in words) [2] |
| --- | --- | --- | --- |
| Cc1cc(C)c2c(n1)sc1c(O)nnnc12 [7,9-diCH3, OH, 4-Hydroxy-7,9-dimethylpyrido[3',2':4,5]thieno[3,2-d]-1,2,3-triazine] | 5.6 mg/kg |  |  |
| Oc1nnnc2c1sc1nc(-c3ccccc3)ccc12 [7-phenyl, OH, 4-Hydroxy-7-phenylpyrido[3',2':4,5]thieno[3,2-d]-1,2,3-triazine] | 0.74 mg/kg |  |  |
| Cc1ccc2c(n1)sc1cnnnc12 [7-CH3, H, 7-Methylpyrido[3',2':4,5]thieno[3,2-d]-1,2,3-triazine] | 1 mg/kg |  |  |
| Oc1nnnc2c1sc1ncccc12 [4-Hydroxy-pyrido[3',2':4,5]thieno[3,2-d]-1,2,3-triazine, reference compound] |  | 31% | essentially inactive |
| Cc1ccc2c(n1)sc1c(O)nnnc12 [7-CH3, OH, 4-Hydroxy-7-methylpyrido[3',2':4,5]thieno[3,2-d]-1,2,3-triazine] | 6 mg/kg |  |  |

Source: patent US4239887A, “Pyridothienotriazines” (USV Pharmaceutical Corporation, priority 1979, dated 1980)
